≈ marks a conversion by molar mass, not a printed value. Like-named read-outs stand apart in the source and are kept apart here.
Legend:
[1] = in vitro and in mice; cited from earlier work
[2] = system: L1210 cells; assay: L1210 activity in clonogenic assay (TNO Rijswijk); assay type: cell-based; details: Mus musculus, L1210, 192 h, read-out: ID-50 L1210, clonogenic assay
Excerpt: The indoloquinones II (formula II) have been tested in respect of their cytotoxic activity against L1210 cells and R-1 cells (Rhabdomyosarcoma Cells) in a bioliquid assay at the department of oncology of the Free University of Amsterdam (Table I). In addition to this seven compounds (E.O. 1, E.O. 2, E.O. 4, E.O. 7, E.O. 9, E.O. 16 and E.O. 17) have been tested on L1210 activity in a clonogenic assay at TNO, Rijswijk. Further, the lowest active doses of the compounds E.O. 1, E.O. 2, E.O. 4 and E.O. 9 have been determined at TNO Rijswijk, according to the method described by Lamberts et al. [Oncology, 40, 301 (1983)]. (Table II). Eight indoloquinones (E.O. 1, E.O. 2, E.O. 4, E.O. 4A, E.O. 8, E.O. 9, E.O. 33 and E.O. 35) have been tested in a panel of five human tumour lines (TNO Rijswijk; Table III). From the latter group three indoloquinones (E.O. 1, E.O. 4 and E.O. 9) have been selected for a cytotoxicity study, involving five slowly growing human tumour lines (University of Freiburg; Table IV).
The L1210 clonogenic assay used was an improved variant of the method described earlier by H. MARTIN et al. [Cancer Chemother., Rep., 51 451 (1967)] and L. M. van Putten et al. [Cancer Treat. Rep., 60, 373 (1976)] for the growth into colonies of L1210 cells in a soft agar medium. From a suspension culture ~100 L1210 Cells (0.1 ml) were plated into […] culture dishes (Falcon), containing 1 ml of soft agar growth medium and the compound to be tested in appropriate concentrations. The soft agar growth medium consisted of Dulbecco medium supplemented with 15.8% horse serum, 60 μmol 2-mercapto-ethanol, 20 mg/ml L-asparagine and 0.3% bacto agar (Difco).
The culture dishes were incubated at 37° C. in an atmosphere of 1% CO2 in humidified air for 8 days. After this period of continuous drug exposure, colonies were counted and dose-effect curves were made.

[3] = in vivo; set-up: species or system mice; details: mouse, IP, single dose, suspension in carboxymethyl cellulose (2%)
Method: The acute toxicity experiments were carried out with male C5 Black/Rij X CBA/Rij Fl hybrid mice at TNO, Rijswijk. The drugs were administrated IP as suspensions in carboxymethyl cellulose (2%) as a single dose at the first day.

[4] = system: L1210; assay: In vivo L1210 experiments (TNO Rijswijk); set-up: species or system mice
Method: The in vivo L1210 experiments were carried out in male Balb/c X DBA.2 Fl hybrid mice at TNO, Rijswijk.
In these experiments also, the drugs were administered IP as suspensions in carboxymethyl cellulose […] as a single dose at the first day.

[5] = system: R-1 cells (Rhabdomyosarcoma Cells); assay: R-1 activity (bioliquid assay), cytotoxicity; assay type: cell-based; details: Rhabdomyosarcoma cell
In short: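 Rhabdomyosarcoma R-1 cells (~10^6 per dish) in Dulbecco's medium with 10% FCS were exposed to drug solution, which was then replaced by fresh medium. Cells were trypsinized after 48 hours and counted electronically.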

[6] = system: L1210 cells; assay: L1210 activity (bioliquid assay), cytotoxicity; assay type: cell-based; details: Mus musculus
In short: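 Suspension culture in RPMI with 15% FCS and 2-mercaptoethanol (60 μmol). Continuous compound exposure for 48 hours at 37° C under 5% CO2 in humidified air. Cell numbers then counted on an electronic microcell counter.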

[7] = system: A 204 cells; rhabdomyosarcoma; assay: In vitro panel of human tumour lines (TNO): A 204; assay type: cell-based; details: about 72 hours; note: key: -: no inhibition of cell growth; +: total cell-kill
Method: (§1) Compounds E.O. 1, E.O. 2, E.O. 4, E.O. 4A, E.O. 8, E.O. 9, […], E.O. 33, and E.O. 35 were tested for their activity against five human tumour cell lines at the Radiobiological Institute TNO Rijswijk.
(§2) The new in vitro prescreen uses human tumour clones; it was set up by Dr. P. Lelieveld at TNO Rijswijk and comprises testing compounds in a bioliquid assay for their cytostatic activity against the following five human tumour lines:
(§3) After a continuous exposure to the drugs to be tested and to Adriamycin in `24 well tissue culture clusters, type 3524 (Costar)`, the remaining cells are fixed and stained. Using increasing drug concentrations the inhibiting concentration can be estimated qualitatively.
(§4) Cells: the human tumour cells are maintained in Dulbecco's medium supplemented with 10 percent foetal calf serum.
(§5) A, T and Z cell suspensions: 5·10^4 cells/ml
(§6) The cells were grafted into 16 mm wells for 48 hours (0.5 ml cell suspension per well was used).
(§7) Drugs: the compound to be tested was dissolved in appropriate concentrations in a mixture of Hepes-buffered Hanks' balanced salt solution and ethanol. The drug solutions (0.05 ml) were added to the different wells. The final ethanol concentration in each well was less than one percent.
(§8) The cells were continuously incubated with the compound under test at 37° in an atmosphere of 10 percent CO2 in humidified air for about 72 hours.
(§9) Determination of the inhibiting dose: the cells were fixed and stained with a solution of crystal violet in methanol/formaldehyde.

[8] = system: MCF7 breast cancer cells; assay: In vitro panel of human tumour lines (TNO): MCF-7; assay type: cell-based; details: about 72 hours; note: key: -: no inhibition of cell growth; +: total cell-kill
Method: as §1, §2, §3, §4
(§10) M and W cell suspensions: 10^5 cells/ml.
as §6, §7, §8, §9

[9] = system: T 24 cells; bladder carcinoma; assay: In vitro panel of human tumour lines (TNO): T 24; assay type: cell-based; details: about 72 hours; note: key: -: no inhibition of cell growth; +: total cell-kill
Method: as §1, §2, §3, §4, §5, §6, §7, §8, §9

[10] = system: WiDr cells; colon tumour; assay: In vitro panel of human tumour lines (TNO): WiDr; assay type: cell-based; details: about 72 hours; note: key: -: no inhibition of cell growth; +: total cell-kill
Method: as §1, §2, §3, §4, §10, §6, §7, §8, §9

[11] = system: IgR37 cells melanoma; assay: In vitro panel of human tumour lines (TNO): IgR-37; assay type: cell-based; details: about 72 hours; note: key: -: no inhibition of cell growth; +: total cell-kill
Method: as §1, §2, §3, §4, §5, §6, §7, §8, §9

[12] = system: Ovarian (MRI-H-207) line; assay type: in vivo, human; details: 5 mg/kg, days of treatment 0.7
Excerpt: The xenograft experiments have been carried by Dr. H. H. Fiebig of the University of Freiburg [Lung-NSCLC (LXGF) line, Renal line, Breast line; See: H. H. Fiebig et al., Behring Inst. Mitt., 74 343] and by Dr. E. Boven of the Free University Hospital Amsterdam [Ovarian (MRI-H-207) line; See: E. Boven et al., Cancer Res., 45, 86 (1985) and E. Boven et al., Eur. J. Clin. Oncol., 21, 1253 (1985)].
Mice: C57B1 athymic (nu/nu) female mice, 8 to 10 weeks of age were used for s.c. bilateral implantation of tumour fragments 2 mm diameter.
Treatment: E.O. 9 was dissolved in saline at a concentration of 0.5 mg/ml prior to administration. Drug doses and schedules were derived from studies in experimental murine tumour systems and from orientation studies in non-tumour-bearing nude mice. Treatment was started i.v. when tumours measured 50-150 mm^3. After randomization a group of 6-7 tumour-bearing mice was treated and a group of 5-6 tumour-bearing mice served as control.
Evaluation of efficacy: Tumours were measured twice weekly in three dimensions. Efficacy was expressed as the mean of relative tumour volume in treated animals vs. that in control animals×100 (% T/C). The optimal value was calculated within 35 days after the last injection. Toxic death (dead mice within two weeks after the last injection) were excluded from the evaluation.
MRI-H-207: An undifferentiated adenocarcinoma kindly provided by Dr. A. E. Bogden, Worcester, Mass, with a doubling time of 3-5 days.

[13] = system: L1210; details: 3-6 mg/kg; Remers et al., J. Med. Chem. 26 16 (1983); cited from earlier work
[14] = system: breast, pancreatic and prostatic adenocarcinomas, colon, bladder, lung and gastro-intestinal cancer; details: cited from earlier work
[15] = system: DNA; details: cited from earlier work
[16] = system: supercoiled covalently closed circular (CCC) DNA; details: reducing agent, presence of oxygen; cited from earlier work
[17] = Half-wave reduction potentials / polarography (University of Utrecht); assay type: physicochemical
Excerpt: *The halve wave reduction potentials (E1/2) have been determined at the
Pharmaceutical Laboratory of University of Utrecht. Only the first
(quinone) reduction potential has been given.
Additional evidence for the occurrence of a bioreductive activation mechanism during the cytotoxic action of indoloquinones (II) was obtained via electrochemical studies, which have been carried out at the Pharmaceutical Laboratory of the University of Utrecht. […]

[18] = Cytotoxic activity (test not specified); assay type: cell-based
[19] = 8 days continuous exposure, TNO Rijswijk

COC1=C(C)C(=O)c2c(c(COC(N)=O)c3n2CCC3)C1=O [7-methoxymitosene]
antibacterial activity [1]: important antibacterial activity in vitro and in mice

CCCCn1c(/C=C/CO)c(CO)c2c1C(=O)C=C(OC)C2=O [E.O. 16, 3-Hydroxymethyl-5-methoxy-1-butyl-2-[1H-indole-4,7-dione]prop-β-en-α-ol]
IC50 [2, 19]: 0.9 µg/mL (≈ 2.82 µM) | LD50 [3]: 80 mg/kg | response vs control in vivo at 80 mg/kg ([4]; Mus musculus, L1210, 80 mg/kg IP single dose, read-out: % T/C): 89% | response vs control in vivo at 100 mg/kg ([4]; Mus musculus, L1210, 100 mg/kg IP single dose, read-out: % T/C): 100%

CO[C@@]12[C@H](COC(N)=O)C3=C(C(=O)C(C)=C(N)C3=O)N1C[C@@H]1N[C@@H]12 [MMC, mitomycin C, reference compound]
IC50 ([5]; Table VIII, read-out: ID-50 R-1): 0.03 µg/mL (≈ 0.0897 µM) | IC50 ([6]; L1210, 48 h, Table VIII, read-out: ID-50 L1210): 0.05 µg/mL (≈ 0.15 µM) | in vitro activity score, A 204 ([7]; 0.01 μg/ml): - | in vitro activity score, A 204 ([7]; 1.0 μg/ml): + | in vitro activity score, A 204 ([7]; 10 μg/ml): + | in vitro activity score, MCF-7 ([8]; 0.01 μg/ml): - | in vitro activity score, MCF-7 ([8]; 0.1 μg/ml): - | in vitro activity score, MCF-7 ([8]; 10 μg/ml): + | in vitro activity score, T 24 ([9]; 0.01 μg/ml): - | in vitro activity score, T 24 ([9]; 10 μg/ml): + | in vitro activity score, WiDr ([10]; 0.01 μg/ml): - | in vitro activity score, WiDr ([10]; 0.1 μg/ml): - | in vitro activity score, WiDr ([10]; 10 μg/ml): + | in vitro activity score, IgR-37 ([11]; 0.01 μg/ml): - | in vitro activity score, IgR-37 ([11]; 1.0 μg/ml): + | in vitro activity score, IgR-37 ([11]; 10 μg/ml): + | response vs control in vivo at 4 mg/kg ([4]; Mus musculus, L1210, 4 mg/kg IP single dose, read-out: % T/C): 200% | response vs control in vivo at 5 mg/kg ([4]; Mus musculus, L1210, 5 mg/kg IP single dose, read-out: % T/C): 175% | response vs control in vivo at 6 mg/kg ([4]; Mus musculus, L1210, 6 mg/kg IP single dose, read-out: % T/C): 175% | toxic deaths [12]: 1/7 | max. effect (% T/C) [13]: 124-153% | antitumour activity [14]: active against breast, pancreatic and prostatic adenocarcinomas, and notably against colon, bladder, lung and gastro-intestinal cancer | DNA crosslinks [15]: caused rapid DNA instrand crosslinks in a dose dependent fashion | DNA strand breaks [16]: produced single strand breaks

CCCCn1c(/C=C/CO)c(CO)c2c1C(=O)C=C(N1CC1)C2=O [E.O. 17, 5-Aziridino-3-hydroxymethyl-1-butyl-2-[1H-indole-4,7-dione]prop-β-en-αol]
IC50 [2]: 0.3 µg/mL (≈ 0.908 µM) | LD50 [3]: 50 to 80 mg/kg

COC1=CC(=O)c2c(c(CO)c(/C=C/CO)n2C)C1=O [E.O. 7, 3-Hydroxymethyl-5-methoxy-1-methyl-2-[1H-indole-4,7-dione]prop-β-en-α-ol]
IC50 ([5]; Table I, bioliquid assay, read-out: ID-50 R-1): 4.2 µg/mL (≈ 15.1 µM) | IC50 ([6]; L1210, Table I, bioliquid assay, 48 hours, read-out: ID-50 L1210): 0.5 µg/mL (≈ 1.8 µM) | IC50 [2, 19]: 2.2 µg/mL (≈ 7.93 µM) | direct current polarogram ([17]; DC-polarography): a reduction wave representing the reversible reduction of the benzoquinone nucleus | half-wave potential E1.2, wave I ([17]; pH = 8 vs Ag/AgCl): -367 mV | LD50 [3]: > 100 mg/kg | % T/C ([4]; 250 mg/kg IP single dose): tox.

COC(=O)/C=C/c1c(C(=O)OC)c2c(n1C)C(=O)C=C(N1CC1)C2=O [E.O. 22, Methyl 5-aziridino-3-methoxycarbonyl-1-methyl-2-[1H-indole-4,7-dione]acrylate]
IC50 ([5]; read-out: ID-50 R-1, Table IA, para-indoloquinone diesters): 0.5 µg/mL (≈ 1.45 µM) | IC50 ([6]; L1210, 48 h, read-out: ID-50 L1210, Table IA, para-indoloquinone diesters): 0.01 µg/mL (≈ 0.029 µM) | in vitro activity score, A 204 ([7]; 0.01 μg/ml): - | in vitro activity score, A 204 ([7]; 0.1 μg/ml): - | in vitro activity score, A 204 ([7]; 1.0 μg/ml): + | in vitro activity score, MCF-7 ([8]; 0.01 μg/ml): - | in vitro activity score, MCF-7 ([8]; 0.1 μg/ml): - | in vitro activity score, T 24 ([9]; 0.01 μg/ml): - | in vitro activity score, T 24 ([9]; 0.1 μg/ml): - | in vitro activity score, T 24 ([9]; 1.0 μg/ml): + | in vitro activity score, WiDr ([10]; 0.01 μg/ml): - | in vitro activity score, WiDr ([10]; 0.1 μg/ml): - | in vitro activity score, IgR-37 ([11]; 0.01 μg/ml): - | in vitro activity score, IgR-37 ([11]; 0.1 μg/ml): - | in vitro activity score, IgR-37 ([11]; 1.0 μg/ml): + | E1/2, halve wave reduction potential ([17]; Table IA, only the first (quinone) reduction potential): -179 mV | cytotoxic activities [18]: high cytotoxic activities

Source: patent publication US5079257A, “Indoloquinone compounds” (priority 1986, dated 1992)
